# Target: B-Raf kinase (Homo sapiens (Human), UniProt P15056)
# Test: Inhibitory activity at B-Raf kinase (ADP-GLO assay)
# Assay type: biochemical
# Conditions: not given
# Procedure: Inhibitory Activity of Compounds at B-Raf Kinase
# • [Experimental method]: Use ADP-GLO™ assay kit from Promega to evaluate the inhibitory activity of compounds at B-Raf • [Instrument]: PerKinElmer's ENVISION plate reader • [Material]: Optiplate-384 well plate (PerKinElmer), kinase buffer (50 mM Hepes pH7.5, 1 mM EGTA, 2 mM DTT, 10 mM Mg^2+, 0.05% BSA), B-Raf kinase (Millipore, catalogue #14-530-K), GST-MEK1 substrate (Carna, catalogue #07-141-10), Super pure ATP (Promega), ADP-GLO™ assay kit (Promega, catalogue # V9102), DMSO (Sigma, catalogue #34869), purified water (Millipore, type: Milli-Q). • [Study conditions]: Mix B-Raf kinase (final concentration: 5 nM) and compound (DMSO final concentration: 0.25%) and preincubate at 30° C. for 20 min, then add ATP (final concentration: 6 μM) and reaction substrate (final concentration: 30 nM), React for 2 hrs at 30° C. After reaction, add ADP-GLO™ reagent, react for 40 min at room temperature, then add ADP-GLO™ detecting agent, react for 30 min at room temperature. After that, use ENVSION to measure the […]. • [Samples]: Compounds in the examples and Sorafenib (positive control) • [Data analysis]: Use CBIS data analysis software to calculate IC50 values
# Chain of B-Raf kinase (P15056 416-766): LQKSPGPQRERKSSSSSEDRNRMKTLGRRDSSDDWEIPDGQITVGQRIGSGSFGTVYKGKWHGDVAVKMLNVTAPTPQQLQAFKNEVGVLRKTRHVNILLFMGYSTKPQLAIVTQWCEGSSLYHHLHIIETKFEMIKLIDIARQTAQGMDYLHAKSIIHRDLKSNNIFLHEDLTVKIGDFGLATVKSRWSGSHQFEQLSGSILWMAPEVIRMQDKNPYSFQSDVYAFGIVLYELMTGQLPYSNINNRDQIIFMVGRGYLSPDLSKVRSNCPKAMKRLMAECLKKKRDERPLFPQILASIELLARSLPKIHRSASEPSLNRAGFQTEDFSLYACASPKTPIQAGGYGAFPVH
row,IC50,Structure (SMILES)
1,38 nM,CC(F)(F)c1cc(NC(=O)Nc2ccc(Oc3ccnc(NC(=O)C4CC4)c3)cc2)ccc1Cl [Exe. 149]
2,3.3 nM,O=C(Nc1ccc(Oc2ccnc(NC(=O)C3CC3)c2)cc1)Nc1ccc2c(c1)C(F)(F)CCO2 [Exe. 151]
3,72 nM,N#Cc1cc(NC(=O)Nc2ccc(Oc3ccnc(NC(=O)C4CC4)c3)cc2)cc(C(F)(F)F)c1 [Exe. 152]
4,32 nM,O=C(Nc1ccc(Oc2ccnc(NC(=O)C3CC3)c2)c(F)c1)Nc1ccc(F)c(C(F)(F)F)c1 [Exe. 153]
5,37 nM,O=C(Nc1ccc(Oc2ccnc(NC(=O)C3CC3)c2)c(F)c1)Nc1cc(C(F)(F)F)ccc1F [Exe. 156]
6,43 nM,O=C(Nc1ccc(Oc2ccnc(NC(=O)C3CC3)c2)c(F)c1)Nc1cc(C(F)(F)F)ccc1Cl [Exe. 157]
7,35.4 nM,O=C(Nc1cc(-c2ccncc2)cc(C(F)(F)F)c1)Nc1ccc(Oc2ccnc(NC(=O)C3CC3)c2)c(F)c1 [Exe. 159]
8,7.9 nM,CN1CCC(Nc2cc(NC(=O)Nc3ccc(Oc4ccnc(NC(=O)C5CC5)c4)c(F)c3)cc(C(F)(F)F)c2)CC1 [Exe. 161]
9,22.5 nM,CC1CN(c2cc(NC(=O)Nc3ccc(Oc4ccnc(NC(=O)C5CC5)c4)c(F)c3)cc(C(F)(F)F)c2)CCO1 (stereo not drawn) [Exe. 162]

# Target: KDR kinase (790-1356 AA) (Homo sapiens (Human), UniProt P35968)
# Test: Inhibitory activity at KDR kinase (Lance Ultra Ulight-TK assay)
# Assay type: biochemical
# Conditions: not given
# How it was run: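 TR-FRET (Eu-anti-phosphotyrosine PT66) with 20 nM KDR preincubated with compound 20 min at 30 °C in HEPES pH 7.5 buffer with Mg2+/Mn2+, 0.5% DMSO.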
# Chain of KDR kinase (790-1356 AA) (P35968 790-1356): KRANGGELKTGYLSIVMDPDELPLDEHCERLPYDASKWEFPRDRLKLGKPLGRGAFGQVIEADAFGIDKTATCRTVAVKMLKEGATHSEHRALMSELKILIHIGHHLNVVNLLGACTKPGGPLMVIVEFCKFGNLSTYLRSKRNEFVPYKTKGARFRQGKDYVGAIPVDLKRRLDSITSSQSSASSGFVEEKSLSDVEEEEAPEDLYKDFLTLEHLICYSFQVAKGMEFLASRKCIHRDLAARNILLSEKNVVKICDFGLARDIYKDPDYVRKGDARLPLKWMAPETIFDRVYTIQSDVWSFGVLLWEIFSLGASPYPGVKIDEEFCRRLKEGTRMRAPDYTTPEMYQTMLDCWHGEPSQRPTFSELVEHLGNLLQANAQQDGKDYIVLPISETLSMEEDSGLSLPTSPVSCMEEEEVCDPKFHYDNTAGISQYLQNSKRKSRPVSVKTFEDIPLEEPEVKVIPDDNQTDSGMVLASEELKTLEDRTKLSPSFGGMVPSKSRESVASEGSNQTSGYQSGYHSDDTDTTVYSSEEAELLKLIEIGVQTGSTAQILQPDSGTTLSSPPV
row,IC50,Structure (SMILES)
1,25.4 nM,CC(F)(F)c1cc(NC(=O)Nc2ccc(Oc3ccnc(NC(=O)C4CC4)c3)cc2)ccc1Cl [Exe. 149]
2,4.5 nM,O=C(Nc1ccc(Oc2ccnc(NC(=O)C3CC3)c2)cc1)Nc1ccc2c(c1)C(F)(F)CCO2 [Exe. 151]
3,7.1 nM,N#Cc1cc(NC(=O)Nc2ccc(Oc3ccnc(NC(=O)C4CC4)c3)cc2)cc(C(F)(F)F)c1 [Exe. 152]
4,15.2 nM,O=C(Nc1ccc(Oc2ccnc(NC(=O)C3CC3)c2)c(F)c1)Nc1ccc(F)c(C(F)(F)F)c1 [Exe. 153]
5,8.3 nM,O=C(Nc1ccc(Oc2ccnc(NC(=O)C3CC3)c2)c(F)c1)Nc1cc(C(F)(F)F)ccc1F [Exe. 156]
6,5.9 nM,O=C(Nc1ccc(Oc2ccnc(NC(=O)C3CC3)c2)c(F)c1)Nc1cc(C(F)(F)F)ccc1Cl [Exe. 157]
7,8 nM,O=C(Nc1cc(-c2ccncc2)cc(C(F)(F)F)c1)Nc1ccc(Oc2ccnc(NC(=O)C3CC3)c2)c(F)c1 [Exe. 159]
8,12.2 nM,CN1CCC(Nc2cc(NC(=O)Nc3ccc(Oc4ccnc(NC(=O)C5CC5)c4)c(F)c3)cc(C(F)(F)F)c2)CC1 [Exe. 161]
9,6.8 nM,CC1CN(c2cc(NC(=O)Nc3ccc(Oc4ccnc(NC(=O)C5CC5)c4)c(F)c3)cc(C(F)(F)F)c2)CCO1 (stereo not drawn) [Exe. 162]

# System: PLC-PRF-5 cells
# Test: Inhibition of proliferation of PLC-PRF-5 cells (ATPlite)
# Assay type: cell-based
# Conditions: Homo sapiens, PLC-PRF-5, PLC-PRF-5 cells; read-out: PLC-PRF-5 cell proliferation IC50
# How it was run: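 PLC-PRF-5 cells in DMEM/10% FBS, seeded 2 h before compound; 8-point 3-fold dilutions from 30 μM final top, 0.3% DMSO. After 96 h at 37 °C, 5% CO2, ATP content read by ATPlite luminescence; IC50 calculated.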
row,Structure (SMILES),IC50
1,CC(F)(F)c1cc(NC(=O)Nc2ccc(Oc3ccnc(NC(=O)C4CC4)c3)cc2)ccc1Cl [Exe. 149],800 nM
2,O=C(Nc1ccc(Oc2ccnc(NC(=O)C3CC3)c2)cc1)Nc1ccc2c(c1)C(F)(F)CCO2 [Exe. 151],608 nM
3,N#Cc1cc(NC(=O)Nc2ccc(Oc3ccnc(NC(=O)C4CC4)c3)cc2)cc(C(F)(F)F)c1 [Exe. 152],390 nM
4,O=C(Nc1ccc(Oc2ccnc(NC(=O)C3CC3)c2)c(F)c1)Nc1ccc(F)c(C(F)(F)F)c1 [Exe. 153],735 nM
5,O=C(Nc1ccc(Oc2ccnc(NC(=O)C3CC3)c2)c(F)c1)Nc1cc(C(F)(F)F)ccc1F [Exe. 156],52 nM
6,O=C(Nc1ccc(Oc2ccnc(NC(=O)C3CC3)c2)c(F)c1)Nc1cc(C(F)(F)F)ccc1Cl [Exe. 157],156 nM
7,O=C(Nc1cc(-c2ccncc2)cc(C(F)(F)F)c1)Nc1ccc(Oc2ccnc(NC(=O)C3CC3)c2)c(F)c1 [Exe. 159],642 nM
8,CN1CCC(Nc2cc(NC(=O)Nc3ccc(Oc4ccnc(NC(=O)C5CC5)c4)c(F)c3)cc(C(F)(F)F)c2)CC1 [Exe. 161],1340 nM
9,CC1CN(c2cc(NC(=O)Nc3ccc(Oc4ccnc(NC(=O)C5CC5)c4)c(F)c3)cc(C(F)(F)F)c2)CCO1 (stereo not drawn) [Exe. 162],330 nM

# System: pERK in MDA-MB-231 cells
# Test: Inhibitory activity at pERK (In Cell Western, MDA-MB-231 cells)
# Assay type: cell-based
# Conditions: Homo sapiens, MDA-MB-231, MDA-MB-231 cells; read-out: MDA-MB-231 pERK IC50
# How it was run: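 MDA-MB-231 cells were treated 2 h at 37 °C with 8 compound concentrations in 3-fold dilutions from 30 μM top (0.3% DMSO, DMEM with 0.1% BSA). Cells were then fixed, methanol-permeabilized and immunostained for pERK with PI counterstain. Fluorescence was read on Acumen and IC50 calculated.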
row,IC50,Structure (SMILES)
1,25.4 nM,CC(F)(F)c1cc(NC(=O)Nc2ccc(Oc3ccnc(NC(=O)C4CC4)c3)cc2)ccc1Cl [Exe. 149]
2,3.6 nM,O=C(Nc1ccc(Oc2ccnc(NC(=O)C3CC3)c2)cc1)Nc1ccc2c(c1)C(F)(F)CCO2 [Exe. 151]
3,33 nM,N#Cc1cc(NC(=O)Nc2ccc(Oc3ccnc(NC(=O)C4CC4)c3)cc2)cc(C(F)(F)F)c1 [Exe. 152]
4,23 nM,O=C(Nc1ccc(Oc2ccnc(NC(=O)C3CC3)c2)c(F)c1)Nc1ccc(F)c(C(F)(F)F)c1 [Exe. 153]
5,37.7 nM,O=C(Nc1ccc(Oc2ccnc(NC(=O)C3CC3)c2)c(F)c1)Nc1cc(C(F)(F)F)ccc1F [Exe. 156]
6,34.7 nM,O=C(Nc1ccc(Oc2ccnc(NC(=O)C3CC3)c2)c(F)c1)Nc1cc(C(F)(F)F)ccc1Cl [Exe. 157]
7,44.3 nM,O=C(Nc1cc(-c2ccncc2)cc(C(F)(F)F)c1)Nc1ccc(Oc2ccnc(NC(=O)C3CC3)c2)c(F)c1 [Exe. 159]
8,86.9 nM,CN1CCC(Nc2cc(NC(=O)Nc3ccc(Oc4ccnc(NC(=O)C5CC5)c4)c(F)c3)cc(C(F)(F)F)c2)CC1 [Exe. 161]
9,30.6 nM,CC1CN(c2cc(NC(=O)Nc3ccc(Oc4ccnc(NC(=O)C5CC5)c4)c(F)c3)cc(C(F)(F)F)c2)CCO1 (stereo not drawn) [Exe. 162]
